Laboratory results: patent publication US6479435B1, “Diaryl ethers and processes for their preparation and herbicidal and desiccant compositions containing them” (ISK Americas Incorporated, priority 1997, dated 2002)

Legend:
Format in all cases: in vivo
[1] = system: soybean (Glycine max L., var. Pella 86, SOY); assay: Post-emerge greenhouse test, crop damage rating; conditions: 14 days after application
Outline: (§1)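 Scores use a 0 (no damage) to 100 (complete kill) scale, taken 14 days after a foliar spray. Acetone solutions with 0.25% v/v non-ionic surfactant were applied by track sprayer at 187 l/ha and 63-1000 g ai/ha to bottom-watered 2-3 leaf plants.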

[2] = system: common ragweed (Ambrosia artemisiifolia L., AMBEL); assay: Post-emerge greenhouse herbicide test, phytotoxicity rating; conditions: 14 days after application
Outline: as §1

[3] = system: field corn (Zea mays L., var. Dekalb 535, CORN); assay: Pre-emerge greenhouse test, crop damage rating; conditions: 14 days after application, rating scale 0-100
Outline: (§2)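 Visual 0–100 injury rating (100 = all plants dead) taken 14 days after treatment. Rates of 125–1000 g ai/ha in acetone, 187 l/ha, were sprayed onto soil one day post-sowing; pots were surface-watered to incorporate, then bottom-watered.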

[4] = system: upland rice (Oryza sp., var.Tebonnet, RICE); assay: Pre-emerge greenhouse test, crop damage rating; conditions: 14 days after application, rating scale 0-100
Outline: as §2

[5] = system: field corn (Zea mays L., var. Dekalb 535, CORN); assay: Post-emerge greenhouse test, crop damage rating; conditions: 14 days after application
Outline: as §1

[6] = system: upland rice (Oryza sp., var.Tebonnet, RICE); assay: Post-emerge greenhouse test, crop damage rating; conditions: 14 days after application
Outline: as §1

[7] = system: green foxtail (Setaria viridis, SETVI); assay: Post-emerge greenhouse herbicide test, phytotoxicity rating; conditions: 14 days after application
Outline: as §1

[8] = system: velvetleaf (Abutilon theophrasti, ABUTH); assay: as above; conditions: 14 days after application
Outline: as §1

[9] = system: redroot pigweed (Amaranthus retroflexus, AMARE); assay: as above; conditions: 14 days after application
Outline: as §1

[10] = system: lambsquarters (Chenopodium album, CHEAL); assay: as above; conditions: 14 days after application
Outline: as §1

[11] = system: Johnsongrass (Sorghum halepense, SORHA); assay: as above; conditions: 14 days after application
Outline: as §1

[12] = system: large crabgrass (Digitaria sanguinalis, DIGSA); assay: as above; conditions: 14 days after application
Outline: as §1

[13] = system: ivyleaf morningglory (Ipomoea hederacea, IPOHE); assay: as above; conditions: 14 days after application
Outline: as §1

[14] = system: barnyardgrass (Echinochloa crusgalli, ECHCG); assay: as above; conditions: 14 days after application
Outline: as §1

[15] = system: soybean (Glycine max L., var. Pella 86, SOY); assay: Pre-emerge greenhouse test, crop damage rating; conditions: 14 days after application, rating scale 0-100
Outline: as §2

[16] = system: green foxtail (Setaria viridis, SETVI); assay: Pre-emerge greenhouse herbicide test, phytotoxicity rating; conditions: 14 days after application, rating scale 0-100
Outline: as §2

[17] = system: sicklepod (Cassia obtusifolia, CASOB); assay: as above; conditions: 14 days after application, rating scale 0-100
Outline: as §2

[18] = system: velvetleaf (Abutilon theophrasti, ABUTH); assay: as above; conditions: 14 days after application, rating scale 0-100
Outline: as §2

[19] = system: redroot pigweed (Amaranthus retroflexus, AMARE); assay: as above; conditions: 14 days after application, rating scale 0-100
Outline: as §2

[20] = system: common ragweed (Ambrosia artemisiifolia L., AMBEL); assay: as above; conditions: 14 days after application, rating scale 0-100
Outline: as §2

[21] = system: lambsquarters (Chenopodium album, CHEAL); assay: as above; conditions: 14 days after application, rating scale 0-100
Outline: as §2

[22] = system: Johnsongrass (Sorghum halepense, SORHA); assay: as above; conditions: 14 days after application, rating scale 0-100
Outline: as §2

[23] = system: large crabgrass (Digitaria sanguinalis, DIGSA); assay: as above; conditions: 14 days after application, rating scale 0-100
Outline: as §2

[24] = system: ivyleaf morningglory (Ipomoea hederacea, IPOHE); assay: as above; conditions: 14 days after application, rating scale 0-100
Outline: as §2

[25] = system: barnyardgrass (Echinochloa crusgalli, ECHCG); assay: as above; conditions: 14 days after application, rating scale 0-100
Outline: as §2

## O=c1n(CCCF)nnn1-c1cc(Oc2ncccc2C(F)(F)F)c(Cl)cc1Cl [Compound 6-7]
[1]; 63 g al/ha
  SOY crop damage rating (0-100): 0
[1]; 500 g al/ha
  SOY crop damage rating (0-100): 30
[2]; 63 g al/ha
  AMBEL phytotoxicity rating (0-100): 0
[2]; 500 g al/ha
  AMBEL phytotoxicity rating (0-100): 30
[3]; 125 g ai/ha
  crop damage rating CORN: 0
[3]; 500 g ai/ha
  crop damage rating CORN: 30
[4]; 125 g ai/ha
  crop damage rating RICE: 0
[4]; 500 g ai/ha
  crop damage rating RICE: 40
[5]; 63 g al/ha
  CORN crop damage rating (0-100): 0
[5]; 500 g al/ha
  CORN crop damage rating (0-100): 10
[6]; 63 g al/ha
  RICE crop damage rating (0-100): 0
[6]; 500 g al/ha
  RICE crop damage rating (0-100): 50
[7]; 63 g al/ha
  SETVI phytotoxicity rating (0-100): 20
[7]; 500 g al/ha
  SETVI phytotoxicity rating (0-100): 30
[8]; 63 g al/ha
  ABUTH phytotoxicity rating (0-100): 0
[8]; 500 g al/ha
  ABUTH phytotoxicity rating (0-100): 70
[9]; 63 g al/ha
  AMARE phytotoxicity rating (0-100): 70
[9]; 500 g al/ha
  AMARE phytotoxicity rating (0-100): 80
[10]; 63 g al/ha
  CHEAL phytotoxicity rating (0-100): 50
[10]; 500 g al/ha
  CHEAL phytotoxicity rating (0-100): 80
[11]; 63 g al/ha
  SORHA phytotoxicity rating (0-100): 0
[11]; 500 g al/ha
  SORHA phytotoxicity rating (0-100): 30
[12]; 63 g al/ha
  DIGSA phytotoxicity rating (0-100): 0
[12]; 500 g al/ha
  DIGSA phytotoxicity rating (0-100): 10
[13]; 63 g al/ha
  IPOHE phytotoxicity rating (0-100): 0
[13]; 500 g al/ha
  IPOHE phytotoxicity rating (0-100): 50
[14]; 63 g al/ha
  ECHCG phytotoxicity rating (0-100): 0
[14]; 500 g al/ha
  ECHCG phytotoxicity rating (0-100): 50
[15]; 125 g ai/ha
  crop damage rating SOY: 80
[15]; 500 g ai/ha
  crop damage rating SOY: 90
[16]; 125 g ai/ha
  phytotoxicity rating SETVI: 80
[16]; 500 g ai/ha
  phytotoxicity rating SETVI: 100
[17]; 125 g ai/ha
  phytotoxicity rating CASOB: 0
[17]; 500 g ai/ha
  phytotoxicity rating CASOB: 60
[18]; 125 g ai/ha
  phytotoxicity rating ABUTH: 0
[18]; 500 g ai/ha
  phytotoxicity rating ABUTH: 20
[19]; 500 g ai/ha
  phytotoxicity rating AMARE: 100
[20]; 125 g ai/ha
  phytotoxicity rating AMBEL: 30
[20]; 500 g ai/ha
  phytotoxicity rating AMBEL: 0
[21]; 125 g ai/ha
  phytotoxicity rating CHEAL: 80
[21]; 500 g ai/ha
  phytotoxicity rating CHEAL: 90
[22]; 125 g ai/ha
  phytotoxicity rating SORHA: 20
[22]; 500 g ai/ha
  phytotoxicity rating SORHA: 40
[23]; 125 g ai/ha
  phytotoxicity rating DIGSA: 40
[23]; 500 g ai/ha
  phytotoxicity rating DIGSA: 70
[24]; 125 g ai/ha
  phytotoxicity rating IPOHE: 0
[24]; 500 g ai/ha
  phytotoxicity rating IPOHE: 30
[25]; 125 g ai/ha
  phytotoxicity rating ECHCG: 0
[25]; 500 g ai/ha
  phytotoxicity rating ECHCG: 50

## O=c1n(CCCF)nnn1-c1cc(Oc2ncccn2)c(Cl)cc1Cl [Compound 6-14]
[1]; 63 g al/ha
  SOY crop damage rating (0-100): 50
[1]; 500 g al/ha
  SOY crop damage rating (0-100): 90
[2]; 63 g al/ha
  AMBEL phytotoxicity rating (0-100): 0
[2]; 500 g al/ha
  AMBEL phytotoxicity rating (0-100): 50
[3]; 125 g ai/ha
  crop damage rating CORN: 20
[3]; 500 g ai/ha
  crop damage rating CORN: 40
[4]; 125 g ai/ha
  crop damage rating RICE: 30
[4]; 500 g ai/ha
  crop damage rating RICE: 80
[5]; 63 g al/ha
  CORN crop damage rating (0-100): 0
[5]; 500 g al/ha
  CORN crop damage rating (0-100): 20
[6]; 63 g al/ha
  RICE crop damage rating (0-100): 20
[6]; 500 g al/ha
  RICE crop damage rating (0-100): 50
[7]; 63 g al/ha
  SETVI phytotoxicity rating (0-100): 0
[7]; 500 g al/ha
  SETVI phytotoxicity rating (0-100): 70
[8]; 63 g al/ha
  ABUTH phytotoxicity rating (0-100): 70
[8]; 500 g al/ha
  ABUTH phytotoxicity rating (0-100): 100
[9]; 63 g al/ha
  AMARE phytotoxicity rating (0-100): 20
[9]; 500 g al/ha
  AMARE phytotoxicity rating (0-100): 100
[10]; 63 g al/ha
  CHEAL phytotoxicity rating (0-100): 70
[10]; 500 g al/ha
  CHEAL phytotoxicity rating (0-100): 95
[11]; 63 g al/ha
  SORHA phytotoxicity rating (0-100): 30
[11]; 500 g al/ha
  SORHA phytotoxicity rating (0-100): 90
[12]; 63 g al/ha
  DIGSA phytotoxicity rating (0-100): 0
[12]; 500 g al/ha
  DIGSA phytotoxicity rating (0-100): 30
[13]; 63 g al/ha
  IPOHE phytotoxicity rating (0-100): 50
[13]; 500 g al/ha
  IPOHE phytotoxicity rating (0-100): 100
[14]; 63 g al/ha
  ECHCG phytotoxicity rating (0-100): 0
[14]; 500 g al/ha
  ECHCG phytotoxicity rating (0-100): 60
[15]; 125 g ai/ha
  crop damage rating SOY: 10
[15]; 500 g ai/ha
  crop damage rating SOY: 80
[16]; 125 g ai/ha
  phytotoxicity rating SETVI: 100
[16]; 500 g ai/ha
  phytotoxicity rating SETVI: 100
[17]; 125 g ai/ha
  phytotoxicity rating CASOB: 60
[17]; 500 g ai/ha
  phytotoxicity rating CASOB: 90
[18]; 125 g ai/ha
  phytotoxicity rating ABUTH: 100
[18]; 500 g ai/ha
  phytotoxicity rating ABUTH: 100
[19]; 125 g ai/ha
  phytotoxicity rating AMARE: 100
[19]; 500 g ai/ha
  phytotoxicity rating AMARE: 100
[20]; 125 g ai/ha
  phytotoxicity rating AMBEL: 20
[20]; 500 g ai/ha
  phytotoxicity rating AMBEL: 95
[21]; 125 g ai/ha
  phytotoxicity rating CHEAL: 100
[21]; 500 g ai/ha
  phytotoxicity rating CHEAL: 100
[22]; 125 g ai/ha
  phytotoxicity rating SORHA: 80
[22]; 500 g ai/ha
  phytotoxicity rating SORHA: 100
[23]; 125 g ai/ha
  phytotoxicity rating DIGSA: 90
[23]; 500 g ai/ha
  phytotoxicity rating DIGSA: 100
[24]; 125 g ai/ha
  phytotoxicity rating IPOHE: 60
[24]; 500 g ai/ha
  phytotoxicity rating IPOHE: 95
[25]; 125 g ai/ha
  phytotoxicity rating ECHCG: 60
[25]; 500 g ai/ha
  phytotoxicity rating ECHCG: 99
